Experimental data from US20260015311A1, “AMINO LIPID COMPOUND, PREPARATION METHOD THEREFOR, AND USE THEREOF” (SHENZHEN SHENXIN BIOTECHNOLOGY CO., LTD., priority 2022, published 2026).

How the values were obtained:
[1] = Stability of lipid nanoparticles at 25° C., DLS particle size and PDI; assay type: physicochemical; conditions: for particle size change after four weeks of storage: 25° C., week 4 versus week 0; for particle size: preparation day (week 0)
Method: (§1) The amino lipid compounds of the present disclosure were mixed with DOPE, cholesterol, and PEG2000-DMG in a molar ratio of 45:10:42.5:2.5 and dissolved in absolute ethanol. By using a microinjection pump, the resultant ethanol solution and a sodium acetate solution (50 mM, pH=4.0) were mixed in a ratio of 1:3 in a microfluidic chip to prepare a crude solution of lipid nanoparticles, which were then dialyzed in 1×PBS at a controlled temperature of 4° C. for 6 h using a dialysis box (Fisher, MWCO 20,000), and filtered through a 0.22 μm microporous filter membrane before use.
(§2) Preparation of Lipid Nanoparticles: The Formulation Method 1 was Used to Prepare LNPs for Subcutaneous Administration.
Characterization of lipid nanoparticles: The particle size and PDI of the prepared lipid nanoparticles were measured by Nano-ZSZEN 3600 (Malvern). 40 μL of the LNP solution was taken for particle size measurement with circulation for three times, 30 seconds for each circulation.
(§3) The particle size measurements were carried out on the day of preparation (week 0), and after one week (week 1), two weeks (week 2), and four weeks (week 4) of storage at 25° C., and the expression intensities of Fluc mRNA delivered by subcutaneous administration were determined on the day of preparation (week 0) and after four weeks (week 4).

Fluc mRNA [2] = assay: In vivo delivery of luciferase mRNA (Fluc mRNA) by lipid nanoparticles, living imaging; design: species or system BALB/c mice; conditions: after 12 hours, total fluorescence
Method: as §1
(§4) The formulation method was the same as the formulation method 1, except that the molar ratio of the amino lipid compounds to DSPC, cholesterol and PEG2000-DMG was 50:10:38.5:1.5.
The lipid nanoparticles prepared according to the above formulation method 1 or 2 were used in the biological experiments below for evaluating the performances of in vivo delivery of luciferase mRNA (Fluc mRNA). For the lipid nanoparticles obtained in the formulation method 1, the mass ratio of the amino lipid compounds to the luciferase mRNA was about 10:1, and the lipid nanoparticles were administered subcutaneously; and the lipid nanoparticles obtained in the formulation method 2 were administered by tail vein and intramuscular injection.
6-week-old female BALB/c mice weighed about 20 g were selected and fed in a SPF-grade feeding room. Animal tests were conducted strictly according to the guidelines of National Health institutions and the requirements of animal ethics.
(§5) 9 mice were assigned randomly to each group and injected with the lipid nanoparticles at a dosage of 0.5 mg/kg by three administration routes, i.e., subcutaneous, intramuscular and tail vein injection (three mice for each administration route). After 12 hours, D-luciferin potassium salt (200 μL, 10 mg/mL) was injected into each mouse through the tail vein. After 10 minutes, the total fluorescence intensity of each mouse was observed on a living imaging system (IVIS-200, Xenogen) and taken photographs for record. The expression intensities of Fluc mRNA delivered by representative amino lipid compounds through the three administration routes are shown in Table 2-4. MC3 was used as a control and SM102 was used as a comparative compound.

Fluc mRNA [3] = assay: Stability of lipid nanoparticles at 25° C., subcutaneous expression of Fluc mRNA; assay type: in vivo, mice; conditions: for Fluc expression change after four weeks: 25° C., week 4 versus week 0
Method: as §1, §5, §2, §3

Fluc mRNA [4] = assay: Activity of lipid nanoparticles of formulation method 2, Fluc mRNA by intramuscular administration; assay type: in vivo, BALB/c mice
Method: as §4, §5
Preparation of Lipid Nanoparticles: LNPs were Prepared Using the Formulation Method 2 for Intramuscular Administration.
The measurement method was the same as that of Test Example 1.

[5] = intramuscular injection, formulation method 2, 0.5 mg/kg
[6] = subcutaneous administration, formulation method 1, 0.5 mg/kg
[7] = tail vein administration, formulation method 2, 0.5 mg/kg
[8] = week 0, subcutaneous administration
[9] = week 4, storage at 25° C., subcutaneous administration

Structure (SMILES)	particle size change after four weeks of storage [1]	particle size [1]	Z-Average ([1]; week 0 (day of preparation))	PDI ([1]; week 1, storage at 25° C.)	Z-Average ([1]; week 1, storage at 25° C.)	PDI ([1]; week 2, storage at 25° C.)	Z-Average ([1]; week 2, storage at 25° C.)	Z-Average ([1]; week 4, storage at 25° C.)	Fluorescence intensity (expression intensity of Fluc mRNA) (Fluc mRNA [2]; [5])	Fluorescence intensity (expression intensity of Fluc mRNA) (Fluc mRNA [2]; [6])	Fluorescence intensity (expression intensity of Fluc mRNA) (Fluc mRNA [2]; [7])	Fluc expression change after four weeks (Fluc mRNA [3])	Fluc Expression intensities (Fluc mRNA [3]; [8])	Fluc Expression intensities (Fluc mRNA [3]; [9])	Fluorescence intensity (expression intensity of Fluc mRNA) (Fluc mRNA [4])
CCCCCCCCCOC(=O)CCCCCCCN(CCCCCCCC(=O)OC(CCCCCCCC)CCCCCCCC)C1CCCC(O)C1 (stereo not shown) [Compound 6]	did not increase significantly	about 100 nm	110 nm·days	0.05	110 nm·days	0.04	125 nm·days	125 nm·days	1.2E + 08	3.7E + 08	1.7E + 08	did not decrease significantly	3.7E+08	3.6E+08	–
CCCCCCCCCCCOC(=O)CCCCCN(CCCCCCCC(=O)OC(CCCCCCCC)CCCCCCCC)C1CCC(O)C1 (stereo not shown) [Compound 5]	did not increase significantly	about 100 nm	105 nm·days	0.05	110 nm·days	0.06	110 nm·days	115 nm·days	–	1.4E + 07	–	did not decrease significantly	1.4E+07	1.1E+07	–
CCCCCCCCCOC(=O)CCCCCCCN(CCCCCCCC(=O)OC(CCCCCCCC)CCCCCCCC)C1CCCC1O (stereo not shown) [Comparative compound 1]	–	–	–	–	–	–	–	–	–	–	–	–	–	–	1.7E + 05
CCCCCCCCCOC(=O)CCCCCCCN(CCCCCCOC(=O)C(CCCCCC)CCCCCCCC)C1CCCC(O)C1 (stereo not shown) [Compound 9]	did not increase significantly	about 100 nm	115 nm·days	0.03	120 nm·days	0.06	125 nm·days	125 nm·days	3.7E + 07	4.2E + 07	–	did not decrease significantly	4.2E+07	3.1E+07	–
CCCCCCCCCOC(=O)CCCCCCCN(CCCCCCCC(=O)OC(CCCCCCCC)CCCCCCCC)C1CCC(O)C1 (stereo not shown) [Compound 4]	–	–	–	–	–	–	–	–	–	–	–	–	–	–	6.7E + 06
CCCCCCCCCCCOC(=O)CCCCCN(CCCCCCCC(=O)OC(CCCCCCCC)CCCCCCCC)C1CCC(O)CC1 (stereo not shown) [Comparative compound 7]	–	–	–	–	–	–	–	–	–	–	–	–	–	–	4.5E + 06
CCCCC/C=C\C/C=C\CCCCCCCCOC(=O)CCCCCCCN(CCCCCCOC(=O)C(CCCCCC)CCCCCCCC)C1CCCC(O)C1 (stereo not shown) [Compound 12]	–	–	–	–	–	–	–	–	–	4.2E + 06	6.2E + 06	–	–	–	–
CCCCCCCCC(CCCCCC)OC(=O)CCCCCN(CCCCCC(=O)OC(CCCCCC)CCCCCCCC)C1CCC(O)CC1 (stereo not shown) [Comparative compound 8]	–	–	–	–	–	–	–	–	–	–	–	–	–	–	2.1E + 06
CCCCCCCCC(CCCCCC)OC(=O)CCCCCN(CCCCCC(=O)OC(CCCCCC)CCCCCCCC)C1CCCC(O)C1 (stereo not shown) [Compound 8]	–	–	–	–	–	–	–	–	9.2E + 06	–	5.1E + 06	–	–	–	9.2E + 06
CCCCCCCCCOC(=O)CCCCCCCN(CCCCCCCC(=O)OC(CCCCCCCC)CCCCCCCC)C1CCCC(C(=O)NCCCC)C1 (stereo not shown) [Compound 21]	–	–	–	–	–	–	–	–	–	1.1E + 06	–	–	–	–	–
